Molecular target: T1, CBL-B (Homo sapiens, UniProt Q13191)
T1 construct: GST
Assay: CBL-B TR-FRET IC50 screening (E1/E2 ubiquitination, Biotin-Ubiquitin, Anti GST-Tb donor / Streptavidin-d2 acceptor)
Format: biochemical
Conditions: second part of Table 2 (head 'Patent Cmpd No / Updated Activity'); same CBL-B TR-FRET IC50 bins A-F; read-out: Updated Activity

T1 sequence (Q13191 whole entry): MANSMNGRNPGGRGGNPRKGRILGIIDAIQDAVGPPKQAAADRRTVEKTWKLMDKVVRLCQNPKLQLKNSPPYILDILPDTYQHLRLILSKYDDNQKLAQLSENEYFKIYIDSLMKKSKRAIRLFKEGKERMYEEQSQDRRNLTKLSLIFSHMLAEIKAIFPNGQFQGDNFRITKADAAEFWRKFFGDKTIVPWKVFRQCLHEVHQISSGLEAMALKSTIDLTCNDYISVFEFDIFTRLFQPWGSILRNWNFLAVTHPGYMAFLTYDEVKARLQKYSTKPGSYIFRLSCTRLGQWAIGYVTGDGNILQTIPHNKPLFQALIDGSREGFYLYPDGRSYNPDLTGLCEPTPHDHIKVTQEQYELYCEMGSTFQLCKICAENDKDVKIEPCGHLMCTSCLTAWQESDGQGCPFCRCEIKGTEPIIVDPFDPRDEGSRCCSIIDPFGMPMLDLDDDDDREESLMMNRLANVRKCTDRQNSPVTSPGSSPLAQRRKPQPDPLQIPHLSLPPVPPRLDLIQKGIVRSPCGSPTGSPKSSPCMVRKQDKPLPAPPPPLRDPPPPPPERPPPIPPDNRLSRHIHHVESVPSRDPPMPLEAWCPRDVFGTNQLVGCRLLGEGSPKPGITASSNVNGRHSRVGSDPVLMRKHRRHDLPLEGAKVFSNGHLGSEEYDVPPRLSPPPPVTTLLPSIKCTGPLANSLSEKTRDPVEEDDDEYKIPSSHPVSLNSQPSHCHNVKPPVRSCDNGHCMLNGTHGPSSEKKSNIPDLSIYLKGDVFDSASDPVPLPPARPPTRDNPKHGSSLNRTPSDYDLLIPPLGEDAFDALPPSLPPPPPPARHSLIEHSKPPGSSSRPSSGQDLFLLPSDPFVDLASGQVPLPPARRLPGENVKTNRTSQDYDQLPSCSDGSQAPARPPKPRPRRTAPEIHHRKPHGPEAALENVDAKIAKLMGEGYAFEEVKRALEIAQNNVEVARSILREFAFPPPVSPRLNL

SMILES	IC50 [µM]
CC(=O)N1CC[C@@H](c2cc(C(F)(F)F)c3cn(-c4cccc([C@H](c5nncn5C)C5CCC5)c4)c(=O)n3c2)C1 (single isomer, unassigned) [Compound 422]	< 0.1
CCn1cnnc1[C@@H](c1cccc(-n2cc3c(C(F)(F)F)cc(CN4CCC[C@H](C)C4)cn3c2=O)c1)C1CCC1 (single isomer, unassigned) [Compound 423]	> 10
C[C@H]1CCCN(Cc2cc(C(F)(F)F)c3cn(-c4cccc([C@H](c5nncn5C5CC5)C5CCC5)c4)c(=O)n3c2)C1 (single isomer, unassigned) [Compound 424]	> 10
CC(C)n1cnnc1[C@@H](c1cccc(-n2cc3c(C(F)(F)F)cc(CN4CCC[C@H](C)C4)cn3c2=O)c1)C1CCC1 (single isomer, unassigned) [Compound 425]	> 10
CCn1cnnc1[C@H](c1cccc(-n2cc3c(C(F)(F)F)cc(CN4CCC[C@H](C)C4)cn3c2=O)c1)C1CCC1 (single isomer, unassigned) [Compound 426]	> 10
C[C@H]1CCCN(Cc2cc(C(F)(F)F)c3cn(-c4cccc([C@@H](c5nncn5C5CC5)C5CCC5)c4)c(=O)n3c2)C1 (single isomer, unassigned) [Compound 427]	> 10
CC(C)n1cnnc1[C@H](c1cccc(-n2cc3c(C(F)(F)F)cc(CN4CCC[C@H](C)C4)cn3c2=O)c1)C1CCC1 (single isomer, unassigned) [Compound 428]	> 10
C[C@H]1CCCN(Cc2cc(C(F)(F)F)c3cn(-c4cccc([C@H](c5nncn5C)[C@H]5C[C@H](O)C5)c4)c(=O)n3c2)C1 (single isomer, unassigned) [Compound 435]	> 10
C[C@H]1CCCN(Cc2cc(C(F)(F)F)c3cn(-c4cccc([C@@H](c5nncn5C)[C@H]5C[C@@H](O)C5)c4)c(=O)n3c2)C1 (single isomer, unassigned) [Compound 436]	> 10
C[C@H]1CCCN(Cc2cc(C(F)(F)F)c3cn(-c4cccc([C@H](c5nncn5C)[C@H]5C[C@@H](O)C5)c4)c(=O)n3c2)C1 (single isomer, unassigned) [Compound 437]	< 0.1
C[C@H]1CCCN(Cc2cc(C(F)(F)F)c3cn(-c4cccc([C@@H](c5nncn5C)[C@H]5C[C@H](O)C5)c4)c(=O)n3c2)C1 (single isomer, unassigned) [Compound 438]	< 0.1
CO[C@]1(C)C[C@](c2cccc(-n3cc4c(C(F)(F)F)cc(CN5CCC[C@H](C)C5)cn4c3=O)c2)(c2nncn2C)C1 (single isomer, unassigned) [Compound 439]	0.1 to 0.3
CO[C@]1(C)C[C@@](c2cccc(-n3cc4c(C(F)(F)F)cc(CN5CCC[C@H](C)C5)cn4c3=O)c2)(c2nncn2C)C1 (single isomer, unassigned) [Compound 440]	> 10
Cn1cnnc1[C@H](c1cc(-c2ccncn2)cc(-n2cc3c(C(F)(F)F)cccn3c2=O)c1)C1CCC1 (single isomer, unassigned) [Compound 441]	> 10
Cn1cnnc1[C@@H](c1cc(-c2ccncn2)cc(-n2cc3c(C(F)(F)F)cccn3c2=O)c1)C1CCC1 (single isomer, unassigned) [Compound 442]	> 10
Cn1cnnc1[C@H](c1cc(-c2ccnnc2)cc(-n2cc3c(C(F)(F)F)cccn3c2=O)c1)C1CCC1 (single isomer, unassigned) [Compound 443]	> 10
Cn1cnnc1[C@H](c1cc(-c2ccncc2)cc(-n2cc3c(C(F)(F)F)cccn3c2=O)c1)C1CCC1 (single isomer, unassigned) [Compound 445]	> 10
Cn1cnnc1[C@@H](c1cc(-c2ccncc2)cc(-n2cc3c(C(F)(F)F)cccn3c2=O)c1)C1CCC1 (single isomer, unassigned) [Compound 446]	> 10
Cn1cnnc1[C@H](c1cc(-c2cncnc2)cc(-n2cc3c(C(F)(F)F)cccn3c2=O)c1)C1CCC1 (single isomer, unassigned) [Compound 447]	> 10
Cn1cnnc1[C@@H](c1cc(-c2cncnc2)cc(-n2cc3c(C(F)(F)F)cccn3c2=O)c1)C1CCC1 (single isomer, unassigned) [Compound 448]	> 10
Cn1cnnc1[C@H](c1cc(C#N)cc(-n2cc3c(C(F)(F)F)cccn3c2=O)c1)C1CCC1 (single isomer, unassigned) [Compound 452]	> 10
Cn1cnnc1[C@@H](c1cc(C#N)cc(-n2cc3c(C(F)(F)F)cccn3c2=O)c1)C1CCC1 (single isomer, unassigned) [Compound 453]	0.301 to 1
Cn1cnnc1[C@H](c1cc(-c2cnoc2)cc(-n2cc3c(C(F)(F)F)cccn3c2=O)c1)C1CCC1 (single isomer, unassigned) [Compound 454]	1 to 3
Cn1cnnc1[C@@H](c1cc(-c2cnoc2)cc(-n2cc3c(C(F)(F)F)cccn3c2=O)c1)C1CCC1 (single isomer, unassigned) [Compound 455]	> 10
Cn1cnnc1[C@H](c1cc(-c2cnsc2)cc(-n2cc3c(C(F)(F)F)cccn3c2=O)c1)C1CCC1 (single isomer, unassigned) [Compound 456]	> 10

SMILES	IC50 [µM]
Cn1cnnc1[C@@H](c1cc(-c2cnsc2)cc(-n2cc3c(C(F)(F)F)cccn3c2=O)c1)C1CCC1 (single isomer, unassigned) [Compound 457]	> 10
Cn1cnnc1[C@H](c1cc(-c2ccns2)cc(-n2cc3c(C(F)(F)F)cccn3c2=O)c1)C1CCC1 (single isomer, unassigned) [Compound 458]	3 to 10
Cn1cnnc1[C@@H](c1cc(-c2ccns2)cc(-n2cc3c(C(F)(F)F)cccn3c2=O)c1)C1CCC1 (single isomer, unassigned) [Compound 459]	> 10
Cn1cnnc1[C@H](c1cc(-c2ccsn2)cc(-n2cc3c(C(F)(F)F)cccn3c2=O)c1)C1CCC1 (single isomer, unassigned) [Compound 460]	> 10
Cn1cnnc1[C@@H](c1cc(-c2ccsn2)cc(-n2cc3c(C(F)(F)F)cccn3c2=O)c1)C1CCC1 (single isomer, unassigned) [Compound 461]	> 10
C[C@H]1CCCN(Cc2cc(C(F)(F)F)c3cn(-c4cccc([C@H](c5nncn5C(F)F)C5CCC5)c4)c(=O)n3c2)C1 (single isomer, unassigned) [Compound 462]	> 10
C[C@H]1CCCN(Cc2cc(C(F)(F)F)c3cn(-c4cccc([C@@H](c5nncn5C(F)F)C5CCC5)c4)c(=O)n3c2)C1 (single isomer, unassigned) [Compound 463]	> 10
C[C@@H]1CN(Cc2cc(C(F)(F)F)c3cn(-c4cccc(C5(c6nncn6C)CC6(CC6)C5)c4)c(=O)n3c2)CCC1(F)F (single isomer, unassigned) [Compound 464]	< 0.1
C[C@H]1CN(Cc2cc(C(F)(F)F)c3cn(-c4cccc(C5(c6nncn6C)CC6(CC6)C5)c4)c(=O)n3c2)CCC1(F)F (single isomer, unassigned) [Compound 465]	< 0.1
C[C@H]1CCCN(Cc2cc(C(F)(F)F)c3cn(-c4cccc([C@H](c5nncn5C)C5(O)CCC5)c4)c(=O)n3c2)C1 (single isomer, unassigned) [Compound 474]	< 0.1
C[C@H]1CCCN(Cc2cc(C(F)(F)F)c3cn(-c4cccc([C@@H](c5nncn5C)C5(O)CCC5)c4)c(=O)n3c2)C1 (single isomer, unassigned) [Compound 475]	3 to 10
C[C@H]1CCCN(Cc2cc(C(F)(F)F)c3cn(-c4cc(F)cc([C@H](c5nncn5C)C5COC5)c4)c(=O)n3c2)C1 (single isomer, unassigned) [Compound 476]	0.301 to 1
C[C@H]1CCCN(Cc2cc(C(F)(F)F)c3cn(-c4cc(F)cc([C@@H](c5nncn5C)C5COC5)c4)c(=O)n3c2)C1 (single isomer, unassigned) [Compound 477]	< 0.1
CC(=O)NCc1cc([C@@H](c2nncn2C)C2CCC2)cc(-n2cc3c(C(F)(F)F)cccn3c2=O)c1 (single isomer, unassigned) [Compound 478]	> 10
CC(=O)NCc1cc([C@H](c2nncn2C)C2CCC2)cc(-n2cc3c(C(F)(F)F)cccn3c2=O)c1 (single isomer, unassigned) [Compound 479]	3 to 10
Cn1cnnc1C1(c2cccc(-n3cc4c(C(F)(F)F)cc(CN5CCC[C@H](C(F)(F)F)C5)cn4c3=O)c2)CC2(CC2)C1 (single isomer, unassigned) [Compound 480]	< 0.1
Cn1cnnc1C1(c2cccc(-n3cc4c(C(F)(F)F)cc(CN5CCC[C@@H](C(F)(F)F)C5)cn4c3=O)c2)CC2(CC2)C1 (single isomer, unassigned) [Compound 481]	< 0.1
C[C@H](c1cc(C(F)(F)F)c2cn(-c3cccc([C@H](c4nncn4C)C4CCC4)c3)c(=O)n2c1)N1CC[C@H](F)C1 (single isomer, unassigned) [Compound 485]	< 0.1
C[C@@H](c1cc(C(F)(F)F)c2cn(-c3cccc([C@H](c4nncn4C)C4CCC4)c3)c(=O)n2c1)N1CC[C@H](F)C1 (single isomer, unassigned) [Compound 486]	< 0.1
COC[C@H]1C[C@@H]([C@@H](c2cccc(-n3cc4c(C(F)(F)F)cc(CN5CCC[C@H](C)C5)cn4c3=O)c2)c2nncn2C)C1 (single isomer, unassigned) [Compound 492]	> 10
COC[C@H]1C[C@H]([C@H](c2cccc(-n3cc4c(C(F)(F)F)cc(CN5CCC[C@H](C)C5)cn4c3=O)c2)c2nncn2C)C1 (single isomer, unassigned) [Compound 493]	> 10
COC[C@H]1C[C@H]([C@@H](c2cccc(-n3cc4c(C(F)(F)F)cc(CN5CCC[C@H](C)C5)cn4c3=O)c2)c2nncn2C)C1 (single isomer, unassigned) [Compound 494]	< 0.1
COC[C@H]1C[C@@H]([C@H](c2cccc(-n3cc4c(C(F)(F)F)cc(CN5CCC[C@H](C)C5)cn4c3=O)c2)c2nncn2C)C1 (single isomer, unassigned) [Compound 495]	0.1 to 0.3
Cn1cnnc1[C@@H](c1cc(C#N)cc(-n2cc3c(C(F)(F)F)cc(CN4CCC5(CC5)C4)cn3c2=O)c1)C1CCC1 (single isomer, unassigned) [Compound 496]	> 10
